Read-outs that look alike come from different tables or passages of the source. Values belong to the molecule of their own block, whether it stands above or below them.
Experiments:
ECL P99 = test: Fractional Inhibitory Concentration Index, checkerboard assay; type: cell-based, E. cloacae
Method: (§1) Method 2: Determination of the Fractional Inhibitory Concentration Index
(§2) Serial 2-fold dilutions of each antibiotic tested were prepared in ca-MHB and mixed in each well of a 96-well microtiter plate so that each row (and column) contained a fixed amount of one agent and increasing amounts of the second agent. The range of drug concentrations used in the checkerboard analysis was such that the dilution range encompassed the MIC for each drug used in the analysis. Broth microdilution plates were inoculated with each strain (Table 3) to yield 5.10^5 CFU/mL in a 100 μL final volume and incubated for 18 h at 35° C. in ambient air. Assays including Fosfomycin were supplemented with 25 μg/ml of Glucose-6-phosphate. MICs were determined after overnight incubation, and the fractional inhibitory concentration (FIC) index was calculated for each well. The FIC index (FICI) was calculated for each combination according to the equation FICI=FICa+FICb=(MIC of drug A in combination/MIC of drug A alone)+(MIC of drug B in combination/MIC of drug B alone). The FICI was interpreted as follows: synergy, FICI […]; indifference, 0.5<FIC<4; and antagonism, FICI>4. The checkerboard assays were performed in duplicate.

ECO 190317 = test: as above; type: cell-based, E. coli
Method: as §1, §2

PAE UFR90 = test: as above; type: cell-based, P. aeruginosa
Method: as §1, §2

PAE UFR48 = test: as above; type: cell-based, P. aeruginosa
Method: as §1, §2

KPN UFR68 = test: as above; type: cell-based, K. pneumoniae
Method: as §1, §2

ABA UFR160 = test: MIC, broth microdilution (CLSI), substance alone or ATB combined with compound at 4 or 8 μg/mL; type: cell-based, A. baumannii; conditions: substance alone
Summary of the method: (§3)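 Growth inhibition endpoint, read visually after 16-20 h at 35° C in ambient air. Cation-adjusted Mueller-Hinton broth, inoculum 5·10^5 CFU/mL, CLSI M7-A7 protocol.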

ABA UFR155 = test: as above; type: cell-based, A. baumannii; conditions: substance alone
Summary of the method: as §3

ABA UFR159 = test: as above; type: cell-based, A. baumannii; conditions: substance alone
Summary of the method: as §3

ABA UFR154 = test: as above; type: cell-based, A. baumannii; conditions: substance alone
Summary of the method: as §3

ABA UFR151 = test: as above; type: cell-based, A. baumannii; conditions: substance alone
Summary of the method: as §3

ABA UFR158 = test: as above; type: cell-based, A. baumannii; conditions: substance alone
Summary of the method: as §3

ABA 107292 = test: as above; type: cell-based, A. baumannii; conditions: substance alone
Summary of the method: as §3

ABA UFR156 = test: as above; type: cell-based, A. baumannii; conditions: substance alone
Summary of the method: as §3

ABA UFR157 = test: as above; type: cell-based, A. baumannii; conditions: substance alone
Summary of the method: as §3

ABA UFR152 = test: as above; type: cell-based, A. baumannii; conditions: substance alone
Summary of the method: as §3

ABA UFR153 = test: as above; type: cell-based, A. baumannii; conditions: substance alone
Summary of the method: as §3

[1] = Acinetobacter baumannii, read-out: MIC

Structure (SMILES): NC[C@@H]1CC(=NOCC(N)=O)[C@@H]2CN1C(=O)N2OS(=O)(=O)[O-].O=C(O)C(F)(F)F.[Na+] [Example 4, 2,2,2-trifluroacetate and sodium [(2S,5S)-4-(2-amino-2-oxo-ethoxy)imino-2-(azaniumylmethyl)-7-oxo-1,6-diazabicyclo[3.2.1]octan-6-yl] sulfate]
FIC index min (ECL P99; compound +ATM): 0.63
FIC index min (ECL P99; compound +FEP): 0.44
FIC index min (ECL P99; compound +FOS): ≤0.25
FIC index min (ECL P99; compound +MEM): 0.44
FIC index min (ECL P99; compound +PIP): 0.56
FIC index min (ECO 190317; compound +ATM): 0.57
FIC index min (ECO 190317; compound +FEP): 0.31
FIC index min (ECO 190317; compound +FOS): 0.53
FIC index min (ECO 190317; compound +MEM): 0.87
FIC index min (ECO 190317; compound +PIP): ≤0.74
FIC index min (PAE UFR90; compound +ATM): 0.53
FIC index min (PAE UFR90; compound +FEP): 0.63
FIC index min (PAE UFR90; compound +FOS): 0.63
FIC index min (PAE UFR90; compound +MEM): 1.0
FIC index min (PAE UFR90; compound +PIP): 0.75
FIC index min (PAE UFR48; compound +ATM): 0.50
FIC index min (PAE UFR48; compound +FEP): 0.63
FIC index min (PAE UFR48; compound +FOS): 1.20
FIC index min (PAE UFR48; compound +MEM): 0.63
FIC index min (PAE UFR48; compound +PIP): 0.44
FIC index min (KPN UFR68; compound +ATM): ≤0.023
FIC index min (KPN UFR68; compound +FEP): ≤0.006
FIC index min (KPN UFR68; compound +FOS): ≤0.035
FIC index min (KPN UFR68; compound +MEM): ≤0.023
FIC index min (KPN UFR68; compound +PIP): ≤0.063

MIC (ABA UFR160): >32 µg/mL
MIC (ABA UFR155): >32 µg/mL
MIC (ABA UFR159): >32 µg/mL
MIC (ABA UFR154): >32 µg/mL
MIC (ABA UFR151): >32 µg/mL
MIC (ABA UFR158): >32 µg/mL
MIC (ABA 107292): >32 µg/mL
MIC (ABA UFR156): >32 µg/mL
MIC (ABA UFR157): >32 µg/mL
MIC (ABA UFR152): >32 µg/mL
MIC (ABA UFR153): >32 µg/mL
Structure (SMILES): O=C1N2CC(n3ccnn3)=CC(C2)N1OS(=O)(=O)[O-].[Na+] (centres unmarked) [Example 12, sodium [7-oxo-3-(triazol-1-yl)-1,6-diazabicyclo[3.2.1]oct-3-en-6-yl] sulfate]

MIC (ABA UFR160; [1]): > 32 µg/mL
MIC (ABA UFR155; [1]): > 32 µg/mL
MIC (ABA UFR159; [1]): > 32 µg/mL
MIC (ABA UFR154; [1]): > 32 µg/mL
MIC (ABA UFR151; [1]): > 32 µg/mL
MIC (ABA UFR158; [1]): > 32 µg/mL
MIC (ABA 107292; [1]): > 32 µg/mL
MIC (ABA UFR156; [1]): > 32 µg/mL
MIC (ABA UFR157; [1]): > 32 µg/mL
MIC (ABA UFR152; [1]): > 32 µg/mL
MIC (ABA UFR153; [1]): > 32 µg/mL
Structure (SMILES): O=C1N2CC(n3cccn3)=C[C@H](C2)N1OS(=O)(=O)[O-].[Na+] [Example 15, sodium [(5R)-7-oxo-3-pyrazol-1-yl-1,6-diazabicyclo[3.2.1]oct-3-en-6-yl] sulfate]

From patent US20200024278A1, “COMPOSITION COMPRISING ANTIBIOTIC COMPOUND AND AN HETEROCYCLIC COMPOUND AND THEIR USE IN PREVENTING OR TREATING BACTERIAL INFECTIONS” (MUTABILIS, priority 2016, published 2020)
